pKi: −log10 of the molar value.
Experiments:
[1] = test system: Rattus norvegicus; assay: Serum creatinine concentration measured after intraperitoneal administration of 1 mg/kg of compound to rats(vehicle 4.74+/-0.31); type: functional
[2] = test system: Rattus norvegicus; assay: Serum creatinine concentration measured after intraperitoneal administration of 0.1 mg/kg of compound to rats(vehicle 6.90+/-0.2); type: functional
[3] = test system: Rattus norvegicus; assay: Effect on urinary excretion potassium and sodium after oral administration of 1.6 mg/kg to rats(potassium and sodium excretion in control rat is 0.174+/-0.013); type: functional, Urine
[4] = test system: Rattus norvegicus; assay: Urea nitrogen concentration measured after intraperitoneal administration of 1 mg/kg of compound to rats(vehicle 138.8+/-7.8); type: functional
[5] = test system: Rattus norvegicus; assay: Percent inhibition of serum creatinine by the compound given as ratio of Cr value in treated to vehicle treated ones after intraperitoneal administration of 1 mg/kg of compound to rats(vehicle 4.74+/-0.31); type: functional; details: ip
[6] = test system: Rattus norvegicus; assay: Ratio of urinary excretion value (urinary volume) in treated rats to that in control rats, at a peroral dose of 1.6 mg/Kg; type: functional, Urine
[7] = test system: Rattus norvegicus; assay: Ratio of sodium ion/potassium ion concentration in treated rats to that in control rats, at a peroral dose of 1.6 mg/Kg; type: functional
[8] = test system: Rattus norvegicus; assay: Ratio of urinary excretion value (Na+ concentration) in treated rats to that in control rats, at a peroral dose of 1.6 mg/Kg; type: functional, Urine
[9] = test system: Rattus norvegicus; assay: Ratio of urinary excretion value (Na+ concentration) in treated rats to that in control rats, at a peroral dose of 6.25 mg/Kg; type: functional, Urine
[10] = test system: Rattus norvegicus; assay: Percent inhibition of serum creatinine by the compound given as ratio of Cr value in treated to vehicle treated ones after intraperitoneal administration of 0.1 mg/kg of compound to rats(vehicle 6.90+/-0.2); type: functional; details: ip
[11] = test system: Rattus norvegicus; assay: Oral diuretic activity was measured after oral administration of 1.6 mg/kg to rats(control volume is 0.86+/-0.09); type: functional, Urine
[12] = test system: Rattus norvegicus; assay: Urea nitrogen concentration measured after intraperitoneal administration of 0.1 mg/kg of compound to rats(vehicle 171.3+/-6.4); type: functional
[13] = test system: Rattus norvegicus; assay: Percent inhibition of Urea nitrogen by the compound given as ratio of UN value in treated to vehicle treated ones after intraperitoneal administration of 1 mg/kg of compound to rats(vehicle 138.8+/-7.8); type: functional; details: ip
[14] = test system: Rattus norvegicus; assay: Percent inhibition of Urea nitrogen by the compound given as ratio of UN value in treated to vehicle treated ones after intraperitoneal administration of 0.1 mg/kg of compound to rats(vehicle 171.3+/-6.4); type: functional; details: ip
[15] = test system: Rattus norvegicus; assay: Ratio of urinary excretion value (urinary volume) in treated rats to that in control rats, at a peroral dose of 6.25 mg/Kg; type: functional, Urine
[16] = molecular target: T1, Adenosine receptor A1 (Cavia porcellus, UniProt P47745)
T1 sequence (P47745 whole entry): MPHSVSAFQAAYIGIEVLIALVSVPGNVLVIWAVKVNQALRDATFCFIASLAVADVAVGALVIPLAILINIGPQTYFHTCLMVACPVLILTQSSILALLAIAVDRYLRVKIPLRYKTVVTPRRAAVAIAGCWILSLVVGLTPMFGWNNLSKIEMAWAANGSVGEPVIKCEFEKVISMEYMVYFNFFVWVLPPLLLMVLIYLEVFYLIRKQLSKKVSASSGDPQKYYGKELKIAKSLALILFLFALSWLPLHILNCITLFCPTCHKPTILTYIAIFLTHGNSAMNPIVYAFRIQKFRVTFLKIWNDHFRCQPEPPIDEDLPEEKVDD
Description: Binding affinity against adenosine A1 receptor in guinea pig forebrain membranes using N6-[3H]cyclohexyladenosine as radioligand

[17] = test system: Rattus norvegicus; assay: Serum creatinine concentration measured after intraperitoneal administration of 1 mg/kg of compound to rats(vehicle 5.07+/-0.33); type: functional; details: 1 mg/kg
[18] = test system: Rattus norvegicus; assay: Urea nitrogen concentration measured after intraperitoneal administration of 1 mg/kg of compound to rats(vehicle 195.8+/-14.4); type: functional; details: 1 mg/kg
[19] = test system: Rattus norvegicus; assay: Effect on urinary excretion potassium and sodium after oral administration of 1.6 mg/kg to rats(potassium and sodium excretion in control rat is 0.105+/-0.002); type: functional, Urine
[20] = test system: Rattus norvegicus; assay: Ratio of urinary excretion value (urinary volume) in treated rats to that in control rats, at a peroral dose of 25 mg/Kg; type: functional, Urine
[21] = test system: Rattus norvegicus; assay: Ratio of sodium ion/potassium ion concentration in treated rats to that in control rats, at a peroral dose of 25 mg/Kg; type: functional
[22] = test system: Rattus norvegicus; assay: Ratio of urinary excretion value (Na+ concentration) in treated rats to that in control rats, at a peroral dose of 25 mg/Kg; type: functional, Urine
[23] = test system: Rattus norvegicus; assay: Effect on urinary excretion potassium and sodium after oral administration of 25 mg/kg to rats(potassium and sodium excretion in control rat is 0.180+/-0.024); type: functional, Urine
[24] = test system: Rattus norvegicus; assay: Oral diuretic activity was measured after oral administration of 25 mg/kg to rats(control volume is 1.00+/-0.09); type: functional, Urine
[25] = test system: Rattus norvegicus; assay: Oral diuretic activity was measured after oral administration of 1.6 mg/kg to rats(control volume is 0.79+/-0.12); type: functional, Urine
[26] = test system: Rattus norvegicus; assay: Percent inhibition of Urea nitrogen by the compound given as ratio of UN value in treated to vehicle treated ones after intraperitoneal administration of 1 mg/kg of compound to rats(vehicle 195.8+/-14.4); type: functional; details: Rattus norvegicus, ip
[27] = molecular target: Adenosine A2 receptor (Rattus norvegicus, UniProt P29276+P30543)
[28] = species on record: Rattus norvegicus; assay: animal or person; details: ip, read-out: Inhibition, dose 1 mg/kg, route intraperitoneal

## Cn1c(=O)c2nc(C3CCCC3)[nH]c2n(C)c1=O [8-CYCLOPENTYLTHEOPHYLLINE]
[1]
  Cr: 2.22 mg/dL
[2]
  Cr: 7.26 mg/dL
[3]
  Na: 0.217 m equiv 6hr-1 100g-1
[4]
  UN: 63.6 mg/dL
[5]
  inhibition in vivo at 1 mg/kg: 53%
[6]
  T/C: 1.23
[7]
  Na+/K+: 1.12
[8]
  T/C: 1.25
[9]
  T/C: 1.82
[10]
  inhibition in vivo at 0.1 mg/kg: -5%
[11]
  Urine volume: 1.06 ml 6hr-1 100g-1
[12]
  UN: 168.7 mg/dL
[13]
  inhibition in vivo at 1 mg/kg: 54%
[14]
  inhibition in vivo at 0.1 mg/kg: 1%
[15]
  T/C: 1.64
[16]
  pKi: 7.02

## CCCn1c(=O)c2nc(C3CC4CCC3C4)[nH]c2n(CCC)c1=O (stereo in doubt; 19)
[17]
  Cr: 2.59 mg/dL
[18]
  UN: 101 mg/dL
[19]
  Na: 0.337 m equiv 6hr-1 100g-1
[6]
  T/C: 3.14
[20]
  T/C: 2.54
[7]
  Na+/K+: 2.04
[21]
  Na+/K+: 1.84
[8]
  T/C: 3.22
[22]
  T/C: 2.37
[23]
  Na: 0.427 m equiv 6hr-1 100g-1
[24]
  Urine volume: 2.54 ml 6hr-1 100g-1
[25]
  Urine volume: 2.48 ml 6hr-1 100g-1
[26]
  inhibition in vivo at 1 mg/kg: 48%
[16]
  pKi: 8.42
[27]
  Ki: 440 nM
[28]
  inhibition in vivo at 1 mg/kg: 49%

— ChEMBL document CHEMBL1125524, “Adenosine A1 antagonists. 2. Structure-activity relationships on diuretic activities and protective effects against acute renal failure” (J Med Chem, 1992)
